Measurements published in publication PMC9851200, “Multiparameter phenotypic screening for endogenous TFEB and TFE3 translocation identifies novel chemical series modulating lysosome function” (Autophagy, 2022).
Where two headings read alike, the source gives them in different places.

Tests used:
Format in all cases: binding
[1] = molecular target: T1, kinases (KINOMEscan panel) (Homo sapiens, UniProt Q99759); conditions: MAP3K3; NEW KINOMEscan
T1 sequence (Q99759 1-626): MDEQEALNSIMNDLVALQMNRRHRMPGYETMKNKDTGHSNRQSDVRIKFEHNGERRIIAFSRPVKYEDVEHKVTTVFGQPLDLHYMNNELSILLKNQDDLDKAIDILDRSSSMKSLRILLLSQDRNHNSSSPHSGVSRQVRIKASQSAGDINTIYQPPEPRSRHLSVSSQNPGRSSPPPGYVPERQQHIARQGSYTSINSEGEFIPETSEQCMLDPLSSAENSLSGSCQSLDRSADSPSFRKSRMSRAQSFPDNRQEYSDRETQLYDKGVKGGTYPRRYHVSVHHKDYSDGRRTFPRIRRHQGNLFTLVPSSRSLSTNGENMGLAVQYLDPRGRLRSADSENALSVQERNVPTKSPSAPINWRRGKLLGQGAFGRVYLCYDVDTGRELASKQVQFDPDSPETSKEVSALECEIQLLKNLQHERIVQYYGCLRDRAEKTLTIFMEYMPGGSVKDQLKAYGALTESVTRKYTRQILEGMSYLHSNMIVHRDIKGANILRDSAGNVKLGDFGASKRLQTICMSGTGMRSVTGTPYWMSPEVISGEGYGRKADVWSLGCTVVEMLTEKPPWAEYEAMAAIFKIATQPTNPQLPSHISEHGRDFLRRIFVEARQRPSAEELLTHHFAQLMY

[2] = molecular target: kinases (KINOMEscan panel) (Homo sapiens, UniProt O43353); conditions: RIPK2; NEW KINOMEscan
Chain of kinases (KINOMEscan panel) (Homo sapiens, UniProt O43353) (O43353 whole entry): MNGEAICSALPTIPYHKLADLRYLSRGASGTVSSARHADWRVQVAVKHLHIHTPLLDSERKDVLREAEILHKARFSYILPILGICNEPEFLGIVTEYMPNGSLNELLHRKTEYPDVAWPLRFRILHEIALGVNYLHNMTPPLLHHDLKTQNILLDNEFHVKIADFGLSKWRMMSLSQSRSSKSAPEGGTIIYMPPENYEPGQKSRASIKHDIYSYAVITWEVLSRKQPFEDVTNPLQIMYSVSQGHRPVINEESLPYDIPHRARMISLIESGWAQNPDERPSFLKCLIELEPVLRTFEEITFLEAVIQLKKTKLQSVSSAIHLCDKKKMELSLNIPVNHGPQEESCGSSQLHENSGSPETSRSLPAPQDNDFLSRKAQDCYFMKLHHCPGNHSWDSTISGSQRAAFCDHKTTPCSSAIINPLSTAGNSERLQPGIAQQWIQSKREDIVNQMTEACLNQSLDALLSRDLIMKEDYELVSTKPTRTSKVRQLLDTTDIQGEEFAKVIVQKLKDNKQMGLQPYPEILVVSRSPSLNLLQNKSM

[3] = system: kinases (KINOMEscan panel); conditions: NEW KINOMEscan; for KINOMEscan EGFR(L747-E749del, A750P): kinase EGFR(L747-E749del, A750P); for KINOMEscan EGFR(L747-T751del,Sins): kinase EGFR(L747-T751del,Sins); for KINOMEscan FLT3(ITD): kinase FLT3(ITD)
[4] = molecular target: T2, kinases (KINOMEscan panel) (Homo sapiens, UniProt O15111)
T2 sequence (O15111 1-745): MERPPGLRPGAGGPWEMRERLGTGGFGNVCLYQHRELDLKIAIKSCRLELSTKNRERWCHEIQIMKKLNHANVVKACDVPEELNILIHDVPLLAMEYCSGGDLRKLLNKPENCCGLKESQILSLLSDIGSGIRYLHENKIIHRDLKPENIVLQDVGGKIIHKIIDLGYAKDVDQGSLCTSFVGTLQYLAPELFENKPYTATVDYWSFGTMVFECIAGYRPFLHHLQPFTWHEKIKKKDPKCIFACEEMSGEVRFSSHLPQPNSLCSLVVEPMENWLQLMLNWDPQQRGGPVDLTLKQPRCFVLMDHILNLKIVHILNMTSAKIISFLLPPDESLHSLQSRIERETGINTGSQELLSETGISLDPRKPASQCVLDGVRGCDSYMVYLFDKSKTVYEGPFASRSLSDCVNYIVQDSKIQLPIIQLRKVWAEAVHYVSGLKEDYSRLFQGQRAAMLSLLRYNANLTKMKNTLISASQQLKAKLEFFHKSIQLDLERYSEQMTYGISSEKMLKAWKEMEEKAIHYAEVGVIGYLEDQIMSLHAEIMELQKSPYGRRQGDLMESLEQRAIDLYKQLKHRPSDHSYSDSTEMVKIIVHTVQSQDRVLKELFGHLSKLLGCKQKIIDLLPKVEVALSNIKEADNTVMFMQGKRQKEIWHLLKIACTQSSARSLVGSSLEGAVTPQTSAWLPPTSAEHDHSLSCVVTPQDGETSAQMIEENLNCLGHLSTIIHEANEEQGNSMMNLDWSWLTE

[5] = molecular target: T3, kinases (KINOMEscan panel) (Homo sapiens, UniProt Q9H2K8); conditions: kinase TAOK3; NEW KINOMEscan
T3 sequence (Q9H2K8 1-898): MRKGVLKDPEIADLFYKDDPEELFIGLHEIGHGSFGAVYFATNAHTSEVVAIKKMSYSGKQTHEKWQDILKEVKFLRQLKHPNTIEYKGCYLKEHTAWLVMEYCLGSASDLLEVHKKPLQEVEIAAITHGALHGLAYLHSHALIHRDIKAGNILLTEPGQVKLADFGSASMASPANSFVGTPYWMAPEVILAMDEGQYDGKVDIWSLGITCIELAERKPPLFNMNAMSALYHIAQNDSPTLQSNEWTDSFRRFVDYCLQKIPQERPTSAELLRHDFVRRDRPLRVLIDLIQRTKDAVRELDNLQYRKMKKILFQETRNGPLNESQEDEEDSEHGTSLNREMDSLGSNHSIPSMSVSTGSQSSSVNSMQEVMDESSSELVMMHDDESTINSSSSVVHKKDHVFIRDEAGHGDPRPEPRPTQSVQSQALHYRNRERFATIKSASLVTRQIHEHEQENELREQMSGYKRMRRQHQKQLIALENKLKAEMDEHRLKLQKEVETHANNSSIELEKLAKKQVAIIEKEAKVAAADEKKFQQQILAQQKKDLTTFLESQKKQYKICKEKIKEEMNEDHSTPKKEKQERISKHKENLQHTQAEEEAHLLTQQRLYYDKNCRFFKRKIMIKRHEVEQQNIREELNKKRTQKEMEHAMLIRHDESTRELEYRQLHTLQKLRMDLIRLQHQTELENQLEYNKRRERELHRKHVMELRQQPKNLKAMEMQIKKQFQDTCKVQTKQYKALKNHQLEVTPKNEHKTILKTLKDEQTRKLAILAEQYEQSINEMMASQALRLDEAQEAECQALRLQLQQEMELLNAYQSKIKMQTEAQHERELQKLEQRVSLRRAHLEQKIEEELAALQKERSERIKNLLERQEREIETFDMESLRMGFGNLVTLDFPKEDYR

[6] = molecular target: kinases (KINOMEscan panel) (Homo sapiens, UniProt P08581, M1250T); conditions: kinase MET(M1250T); NEW KINOMEscan
Chain of kinases (KINOMEscan panel) (Homo sapiens, UniProt P08581, M1250T) (P08581 25-1390 M1250T): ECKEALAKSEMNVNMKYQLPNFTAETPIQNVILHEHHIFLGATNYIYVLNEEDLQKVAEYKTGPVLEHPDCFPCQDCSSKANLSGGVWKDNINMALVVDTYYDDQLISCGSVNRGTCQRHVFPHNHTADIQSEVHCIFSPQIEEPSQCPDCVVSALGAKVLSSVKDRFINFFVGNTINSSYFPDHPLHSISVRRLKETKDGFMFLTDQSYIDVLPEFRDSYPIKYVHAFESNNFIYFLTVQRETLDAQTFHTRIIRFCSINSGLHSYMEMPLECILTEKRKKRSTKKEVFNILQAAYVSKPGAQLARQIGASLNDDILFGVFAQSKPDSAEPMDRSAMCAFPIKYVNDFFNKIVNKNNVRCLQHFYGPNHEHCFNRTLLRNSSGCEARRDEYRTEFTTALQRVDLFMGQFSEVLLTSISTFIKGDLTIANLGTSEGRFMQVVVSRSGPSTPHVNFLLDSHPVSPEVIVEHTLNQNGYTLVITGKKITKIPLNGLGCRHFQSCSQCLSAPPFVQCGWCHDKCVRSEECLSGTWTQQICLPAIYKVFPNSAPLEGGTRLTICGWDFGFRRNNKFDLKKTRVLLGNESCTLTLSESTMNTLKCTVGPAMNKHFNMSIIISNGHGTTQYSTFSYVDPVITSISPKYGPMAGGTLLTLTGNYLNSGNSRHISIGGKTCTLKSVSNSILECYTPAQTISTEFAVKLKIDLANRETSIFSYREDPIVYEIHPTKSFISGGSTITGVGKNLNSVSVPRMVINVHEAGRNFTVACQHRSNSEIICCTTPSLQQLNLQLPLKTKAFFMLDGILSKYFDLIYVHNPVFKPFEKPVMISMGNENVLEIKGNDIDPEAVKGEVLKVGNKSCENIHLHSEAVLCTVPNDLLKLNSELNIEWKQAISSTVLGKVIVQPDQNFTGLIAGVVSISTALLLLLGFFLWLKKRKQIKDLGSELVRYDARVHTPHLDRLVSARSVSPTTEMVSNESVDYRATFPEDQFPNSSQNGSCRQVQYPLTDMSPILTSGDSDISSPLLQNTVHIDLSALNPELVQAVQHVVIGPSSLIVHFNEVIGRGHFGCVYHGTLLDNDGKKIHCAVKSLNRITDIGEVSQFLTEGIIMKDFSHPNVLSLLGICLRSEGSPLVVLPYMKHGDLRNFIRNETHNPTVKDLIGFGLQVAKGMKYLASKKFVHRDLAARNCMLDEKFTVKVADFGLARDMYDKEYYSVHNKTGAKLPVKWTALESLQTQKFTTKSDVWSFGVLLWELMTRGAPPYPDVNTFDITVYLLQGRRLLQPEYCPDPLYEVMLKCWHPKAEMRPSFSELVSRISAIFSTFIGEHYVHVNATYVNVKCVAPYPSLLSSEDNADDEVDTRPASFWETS

[7] = molecular target: kinases (KINOMEscan panel) (Homo sapiens, UniProt Q99558); conditions: kinase MAP3K14; NEW KINOMEscan
Chain of kinases (KINOMEscan panel) (Homo sapiens, UniProt Q99558) (Q99558 whole entry): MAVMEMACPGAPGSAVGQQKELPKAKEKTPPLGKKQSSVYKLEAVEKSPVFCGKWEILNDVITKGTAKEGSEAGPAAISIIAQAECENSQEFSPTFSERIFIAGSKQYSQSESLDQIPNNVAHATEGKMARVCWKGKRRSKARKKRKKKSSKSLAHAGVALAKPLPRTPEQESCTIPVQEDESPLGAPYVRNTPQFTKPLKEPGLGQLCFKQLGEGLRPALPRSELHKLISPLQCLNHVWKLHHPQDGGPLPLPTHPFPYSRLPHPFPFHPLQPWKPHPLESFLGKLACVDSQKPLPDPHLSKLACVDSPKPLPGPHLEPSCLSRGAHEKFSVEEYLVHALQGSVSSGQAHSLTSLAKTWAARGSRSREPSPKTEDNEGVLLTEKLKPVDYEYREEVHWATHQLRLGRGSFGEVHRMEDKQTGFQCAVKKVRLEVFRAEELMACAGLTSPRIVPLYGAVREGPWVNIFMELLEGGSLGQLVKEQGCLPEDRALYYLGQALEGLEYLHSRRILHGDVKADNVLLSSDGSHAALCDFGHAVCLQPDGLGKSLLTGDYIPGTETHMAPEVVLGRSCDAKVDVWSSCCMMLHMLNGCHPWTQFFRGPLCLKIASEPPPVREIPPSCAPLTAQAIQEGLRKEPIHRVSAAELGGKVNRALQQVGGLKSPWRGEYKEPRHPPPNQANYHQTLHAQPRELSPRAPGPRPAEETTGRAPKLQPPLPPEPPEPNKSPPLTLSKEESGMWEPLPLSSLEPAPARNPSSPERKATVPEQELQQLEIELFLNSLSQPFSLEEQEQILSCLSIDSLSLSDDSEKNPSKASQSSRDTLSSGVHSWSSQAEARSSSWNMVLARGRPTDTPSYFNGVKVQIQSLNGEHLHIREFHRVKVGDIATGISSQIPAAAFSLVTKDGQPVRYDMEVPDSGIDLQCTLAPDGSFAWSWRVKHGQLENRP

Cc1cccc(-c2nc(N(C)c3ccc4ncsc4c3)c3ccccc3n2)n1 [NK-161]
KINOMEscan MAP3K3 [1]: 0
KINOMEscan RIPK2 [2]: 11
KINOMEscan EGFR(L747-S752del, P753S) [3]: 19
KINOMEscan FLT3(ITD,D835V) [3]: 25
KINOMEscan FLT3(ITD,F691L) [3]: 25
KINOMEscan PRKAA2 [3]: 20
KINOMEscan EGFR(L747-E749del, A750P) [3]: 0
KINOMEscan EGFR(L747-T751del,Sins) [3]: 0
KINOMEscan FLT3(ITD) [3]: 4
KINOMEscan PRKAA2 ([3]; kinase PRKAA2): 0
KINOMEscan CHUK/IKK-alpha [4]: 20
KINOMEscan TAOK3 [5]: 13
KINOMEscan MET(M1250T) [6]: 3
KINOMEscan MAP3K14 [7]: 2

Cc1cccc(-c2nc(Nc3ccc4nn(C)cc4c3)c3ccccc3n2)n1 [NK167]
KINOMEscan MAP3K3 [1]: 0
KINOMEscan RIPK2 [2]: 3
KINOMEscan EGFR(L747-S752del, P753S) [3]: 0
KINOMEscan FLT3(ITD,D835V) [3]: 7
KINOMEscan FLT3(ITD,F691L) [3]: 33
KINOMEscan PRKAA2 [3]: 11
KINOMEscan EGFR(L747-E749del, A750P) [3]: 0
KINOMEscan EGFR(L747-T751del,Sins) [3]: 0
KINOMEscan FLT3(ITD) [3]: 0
KINOMEscan PRKAA2 ([3]; kinase PRKAA2): 0
KINOMEscan CHUK/IKK-alpha [4]: 0
KINOMEscan TAOK3 [5]: 4
KINOMEscan MET(M1250T) [6]: 0
KINOMEscan MAP3K14 [7]: 0
